Among the data in US20170281573A1, “MEDICINAL COMPOSITION FOR ENHANCED DELIVERY OF TRITERPENES” (PHARCON INC., priority 2016, published 2017) are water solubility values, retold here.

Where a name gives a salt, the structure may show the parent alone.

The data set is described as follows: Water solubility. In kind it is physicochemical.

On to `C[C@H]1[C@H](C)CC[C@]2(C(=O)O)CC[C@]3(C)C(=CC[C@@H]4[C@@]5(C)C[C@@H](O)[C@H](O)C(C)(C)[C@@H]5CC[C@]43C)[C@H]12` [Corosolic acid], for which the water solubility entry is listed as “below 1 mcg/ml”.

For `C[C@H]1[C@H](C)CC[C@]2(C(=O)O)CC[C@]3(C)C(=CC[C@@H]4[C@@]5(C)C[C@@H](O)[C@H](O)C(C)(C)[C@@H]5CC[C@]43C)[C@H]12` [sodium salt of this acid], the water solubility result was “less than 5 mcg/ml”.
